System: human p75-TNF-R versus human p55-TNF-R
Test: Selectivity factor S from competitive binding to p75-TNF-R and p55-TNF-R
Settings: based on IC50 p75-TNF-R and IC50 p55-TNF-R (Table F, FIGS. 10A-10E)
Method: The filters were blocked with blocking buffer (50 mM Tris, 140 mM NaCl, 5 mM EDTA, 0.02% NaN3, 1% defatted milk powder) for 1.5 hours at room temperature. […] The filters were washed with blocking buffer (2× for 5 min.) and with H2 O (1× for 5 min.), air dried, and counted in a γ-counter.
After three hours at room temperature the wells were thoroughly washed with PBS and counted in a γ-counter.

| Substance | selectivity factor S |
| --- | --- |
| Tyr^29 -TNFα: TNF-α mutein with tyrosine substituted at position 29, SEQ ID No: 6 | 110 |
| Tyr^32 -TNFα: TNF-α mutein with tyrosine substituted at position 32, SEQ ID No: 10 | 90 |
